According to patent publication US20180153840A1, “THE COMPOSITIONS OF GLYCEROL AND /OR NON-TOXIC AMINO ACIDS FOR INHIBITING AND DESTROYING BIOFILM, INCLUDING RELATED METHODS” (priority 2015, published 2018):
Read-outs that look alike come from different tables or passages of the source.

How the values were obtained:
[1] = system: bacterial and fungal biofilms; assay: In vitro testing on bacterial and fungal biofilms; format: cell-based; details: for effect on bacterial and fungal biofilm (in words): in vitro
Protocol: (§1) For fungal biofilm assays, all solutions were prepared in RPMI 1640 medium. All bacterial biofilm solutions were prepared in Trypic Soy Broth (TSB), supplemented with 1% glucose (henceforth referred to as TSB-G). All subsequent procedures were performed in a manner that maintained sterility. A solution of each amino acid to be tested was prepared in weight to volume concentrations ranging from 0.1-5.0%. Amino acids were also tested in combinations. Compound solutions were homogenized with gentle agitation in the dark (4° C., 24 hours) before use.
(§2) All biofilm assays were performed using 384-well non-tissue culture treated polystyrene plates. The fungal species tested are as follows: Candida albicans, Candida guilliermondii Candida parapsilosis, Candida glabrata, Candida tropicalis and Candida dubliniensis. The bacterial species tested are as follows: Staphylococcus aureus (standard wild type and methicillin-resistant strain USA300), Escherichia coli, Pseudomonas aeruginosa and Staphylococcus epidermidis.
(§3) Fungal strains were streaked on Yeast Peptone Dextrose (YPD) agar plates and incubated at 30° C. for 48 hours. A single colony from each strain to be tested was inoculated into YPD broth and grown for 12 hours, at 30° C., shaking at 225 rpm. For the fungal biofilm inhibition assay, 1 μl of saturated overnight cell culture was added to either 80 μL of RPMI-1640 or RPMI-1640 supplemented with the amino acid compound solution to be tested, in a 384-well plate. The cells were allowed to adhere to the plate for 90 minutes at 37° C. with shaking (350 rpm). Loosely bound cells were washed once with phosphate buffered saline (PBS) and 80 ul of RPMI-1640, or RPMI-1640 supplemented with the amino acid compound solution was added to the plate. The plate was further incubated for 24 hours at 37° C. with shaking (350 rpm). Media was carefully aspirated and the biofilm was measured for fungal cell concentration by optical density at 600 nm. Twelve replicates were performed for each tested condition and the reported values were normalized to the control (RPMI-1640 media only).
(§4) For the fungal biofilm disruption assays, 80 μL of RPMI-1640 was added to the plate, along with 1 μL of overnight cell culture. The cells were allowed to adhere to the plate for 90 minutes at 37° C. with shaking (350 rpm). Loosely bound cells were washed once with PBS and 80 μL of RPMI-1640 was added to the plate. The plate was further incubated for 24 hours at 37° C. with shaking (350 rpm). Media was carefully aspirated from the mature biofilm and 80 μL of RPMI-1640, or RPMI-1640 supplemented with the amino acid compound solution to be tested, was gently added to the plate. The plate was further incubated for 24 hours at 37° C. with shaking (350 rpm). Media was carefully aspirated and the biofilm was measured for fungal cell concentration by optical density at 600 nm. Twelve replicates were performed for each tested condition and the reported values are normalized to the control (RPMI-1640 media only).
(§5) Bacterial strains were streaked on Blood Agar plates (5% sheep blood in Tryptic Soy Broth) and incubated at 37° C. for 24 hours. A single colony from each strain to be tested was inoculated in a TSB broth and grown for 12 hours, at 37° C. with shaking (225 rpm).
(§6) For the bacterial biofilm inhibition assays, 1 μL of saturated overnight cell culture was added to either 80 μL of TSB-G, or TSB-G supplemented with the amino acid compound solution to be tested, in a 384-well plate. The cells were allowed to adhere to the plate for 60 minutes at 37° C. without shaking. The media was carefully aspirated and 80 μL of TSB-G, or TSB-G supplemented with the amino acid compound solution was added to the plate. The plate was further incubated for 24 hours at 37° C. without shaking. Media was carefully aspirated and the biofilm was measured for bacterial cell concentration by optical density at 600 nm.

[2] = Protocol: as §1, §2
C. albicans biofilm [3] = assay: Fungal biofilm inhibition assay; format: cell-based, Candida albicans; details: sustained inhibition assay, 1% amino acid, p≤0.001
Protocol: as §1, §2, §3

C. albicans biofilm [4] = assay: Fungal biofilm disruption assay; format: cell-based, Candida albicans; details: 1% amino acid, p≤0.001
Protocol: as §1, §2, §4

S. aureus biofilm [5] = assay: Bacterial biofilm disruption assay; format: cell-based; details: Staphylococcus aureus, read-out: Reduce B Biofilm
Protocol: as §1, §2, §5
(§7) For the bacterial biofilm disruption assays, 80 μL of TSB-G was added to the plate, along with 1 μL of overnight cell culture. The cells were allowed to adhere to the plate for 60 minutes at 37° C. without shaking. The media was carefully aspirated and 80 μL of TSB-G was added to the plate. The plate was further incubated for 24 hours at 37° C. without shaking. Media was carefully aspirated from the mature biofilm and 80 μL of TSB-G, or TSB-G supplemented with the amino acid to be tested, was gently added to the plate. The plate was further incubated for 24 hours at 37° C. without shaking. Media was aspirated and the biofilm was measured for bacterial cell concentration by optical density at 600 nm. Twelve replicates were performed for each tested condition and the reported values were normalized to the control (TSB-G media only).

fungal biofilms = assay: Fungal biofilm assays (sustained inhibition and/or disruption); format: cell-based, Candida albicans; details: at least one of the two assays (sustained inhibition and/or disruption); for anti-biofilm properties against fungal biofilms: administered individually
Protocol: as §1, §2, §3, §4

bacterial biofilms = assay: Bacterial biofilm assays (sustained inhibition and/or disruption); format: cell-based, Staphylococcus aureus; details: individually, about 0.1 to about 5.0% weight to volume (cystathionine 0.2%); at least one of the two assays
Protocol: as §1, §2, §5
as §6, with “nm. Eight or twelve replicates were performed for each tested condition and the reported values were normalized to the control (TSB-G media only).” for “nm.”
as §7

S. aureus biofilm [6] = assay: Bacterial biofilm inhibition assay; format: cell-based, Staphylococcus aureus; details: sustained inhibition assay; S. aureus; 1% amino acid; p≤0.001
Protocol: as §1, §2, §5
as §6, with “nm. Eight or twelve replicates were performed for each tested condition and the reported values were normalized to the control (TSB-G media only).” for “nm.”

[7] = system: bacteria (S. aureus) biofilm and fungal (C. albicans) biofilm; assay: Sustained inhibition biofilm assay, bacterial and fungal together (Table C: Both/Neutral); format: cell-based, Staphylococcus aureus; Candida albicans; details: 1% amino acid
Protocol: as §1, §2
Fungal strains were streaked on Yeast Peptone Dextrose (YPD) agar plates and incubated at 30° C. for 48 hours. A single colony from each strain to be tested was inoculated into YPD broth and grown for 12 hours, at 30° C., shaking at 225 rpm. For the fungal biofilm inhibition assay, 1 μl of saturated overnight cell culture was added to either 80 μL of RPMI-1640 or RPMI-1640 supplemented with the amino acid compound solution to be tested, in a 384-well plate. The cells were allowed to adhere to the plate for 90 minutes at 37° C. with shaking (350 rpm). […] Media was carefully aspirated and the biofilm was measured for fungal cell concentration by optical density at 600 nm. […]
For the bacterial biofilm inhibition assays, 1 μL of saturated overnight cell culture was added to either 80 μL of TSB-G, or TSB-G supplemented with the amino acid compound solution to be tested, in a 384-well plate. […] Media was carefully aspirated and the biofilm was measured for bacterial cell concentration by optical density at 600 nm. […]

[8] = system: bacteria (S. aureus) biofilm and fungal (C. albicans) biofilm; assay: Disruption biofilm assay, bacterial and fungal together (Table D: Both/Neutral); format: cell-based, Staphylococcus aureus; Candida albicans; details: 1% amino acid
Protocol: as §1, §2
as §4, with “Twelve replicates were performed for each tested condition and the reported values are normalized to the control (RPMI-1640 media only).” left out
For the bacterial biofilm disruption assays, 80 μL of TSB-G was added to the plate, along with 1 μL of overnight cell culture. […] Media was aspirated and the biofilm was measured for bacterial cell concentration by optical density at 600 nm. […]

[9] = disruption assay, S. aureus, 1% amino acid, p≤0.001

| SMILES | inhibition at 1 % (S. aureus biofilm [5]; [9]) | anti-biofilm properties against bacterial biofilms (bacterial biofilms) | Reduce F Biofilm (C. albicans biofilm [3]) | Reduce F Biofilm (C. albicans biofilm [4]) | Reduce B Biofilm (S. aureus biofilm [6]) | Reduce Both [7] | Reduce Both [8] | effect on bacterial and fungal biofilm (in words) [1] | anti-biofilm properties against fungal biofilms (fungal biofilms) | further results |
| --- | --- | --- | --- | --- | --- | --- | --- | --- | --- | --- |
| Cn1cnc(C[C@H](N)C(=O)O)c1 [1-Methylhistidine, 1-methyl-L-histidine] |  |  |  |  |  |  |  |  |  | neutral, effect on bacterial or fungal biofilms ([1]; both assays (sustained inhibition and disruption)): no effect on bacterial or fungal biofilms; solubility (in words) [2]: limited solubility |
| Cn1cncc1C[C@H](N)C(=O)O [3-Methylhistidine, 3-methyl-L-histidine] | 10 to 30% | anti-biofilm properties against bacterial biofilms |  |  |  |  |  |  |  | Promote F Biofilm (C. albicans biofilm [3]): • (a single dot (●) signifies an effect in a range of about 10 to about 30% change); Promote F Biofilm (C. albicans biofilm [4]): • (a single dot (●) signifies an effect in a range of about 10 to about 30% change); support (improve) fungal biofilm growth (fungal biofilms): support (improve) fungal biofilm growth |
| N[C@@H](CC(=O)O)C(=O)O [Aspartic Acid, L-aspartic acid] | > 30% |  | •• (two dots (●●) signifies an effect of greater than 30% change) | •• (two dots (●●) signifies an effect of greater than 30% change) | •• (two dots (●●) signifies an effect of greater than 30% change) | •• (two dots (●●) signifies an effect of greater than 30% change) | •• (two dots (●●) signifies an effect of greater than 30% change) | very active against biofilm |  |  |
| N[C@@H](CCSC[C@H](N)C(=O)O)C(=O)O [Cystathionine, L-cystathionine] |  | anti-biofilm properties against bacterial biofilms |  |  |  |  |  |  |  | inhibition at 0.2 % (S. aureus biofilm [5]; disruption assay, S. aureus, 0.2% amino acid): 10 to 30%; solubility (in words) [2]: limited solubility |
| N[C@@H](CS)C(=O)O [Cysteine, L-cysteine] | > 30% |  | •• (two dots (●●) signifies an effect of greater than 30% change) | •• (two dots (●●) signifies an effect of greater than 30% change) | •• (two dots (●●) signifies an effect of greater than 30% change) | •• (two dots (●●) signifies an effect of greater than 30% change) | •• (two dots (●●) signifies an effect of greater than 30% change) |  |  |  |
| NCCO [Ethanolamine, ethanolamine] |  | anti-biofilm properties against bacterial biofilms | • (a single dot (●) signifies an effect in a range of about 10 to about 30% change) |  |  |  |  |  | anti-biofilm properties against fungal biofilms |  |
| N[C@@H](CCC(=O)O)C(=O)O [Glutamic Acid, L-glutamic acid] | > 30% |  | •• (two dots (●●) signifies an effect of greater than 30% change) | •• (two dots (●●) signifies an effect of greater than 30% change) | •• (two dots (●●) signifies an effect of greater than 30% change) | •• (two dots (●●) signifies an effect of greater than 30% change) | •• (two dots (●●) signifies an effect of greater than 30% change) | very active against biofilm |  |  |
| O=C(O)[C@@H]1C[C@@H](O)CN1 [Hydroxyproline, Trans-4-hydroxy-L-proline] |  | anti-biofilm properties against bacterial biofilms | • (a single dot (●) signifies an effect in a range of about 10 to about 30% change) |  | • (a single dot (●) signifies an effect in a range of about 10 to about 30% change) |  |  |  | anti-biofilm properties against fungal biofilms | inhibition at 1 % (S. aureus biofilm [5]): 10 to 30% |
| N[C@@H](COP(=O)(O)O)C(=O)O [Phosphoserine, O-phospho-L-serine] | 10 to 30% | anti-biofilm properties against bacterial biofilms |  | • (a single dot (●) signifies an effect in a range of about 10 to about 30% change) |  |  |  |  | anti-biofilm properties against fungal biofilms |  |
| CC(C)[C@H](N)C(=O)O [Valine, L-valine] |  |  |  |  |  |  |  | promote bacterial and fungal biofilm |  | Promote F Biofilm (C. albicans biofilm [3]): • (a single dot (●) signifies an effect in a range of about 10 to about 30% change); Promote F Biofilm (C. albicans biofilm [4]): • (a single dot (●) signifies an effect in a range of about 10 to about 30% change); support (improve) fungal biofilm growth (fungal biofilms): support (improve) fungal biofilm growth |
